The text below walks through data of patent US12275731B2, “Azaindole inhibitors of wild-type and mutant forms of LRRK2” (DANA-FARBER CANCER INSTITUTE, INC., priority 2018, dated 2025).

Holding throughout (assay): KinomeScan profiling
Format in all cases: binding

Experiment [1] addresses HIPK1 (Homo sapiens, UniProt Q86Z02). The conditions noted are these: HIPK1, 1 μM; read-out: % control. The essentials: (§1)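 1 μM cpd in DMSO; 468-kinase panel; readout RLU. % ctrl = (cpd − pos ctrl)/(neg ctrl − pos ctrl) ×100. Pos ctrl = 0%, DMSO = 100%. Hit cut-off <35%.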
Experiment [2] deals with T1, MKK7 (Homo sapiens, UniProt O14733).
T1 sequence (O14733 1-419): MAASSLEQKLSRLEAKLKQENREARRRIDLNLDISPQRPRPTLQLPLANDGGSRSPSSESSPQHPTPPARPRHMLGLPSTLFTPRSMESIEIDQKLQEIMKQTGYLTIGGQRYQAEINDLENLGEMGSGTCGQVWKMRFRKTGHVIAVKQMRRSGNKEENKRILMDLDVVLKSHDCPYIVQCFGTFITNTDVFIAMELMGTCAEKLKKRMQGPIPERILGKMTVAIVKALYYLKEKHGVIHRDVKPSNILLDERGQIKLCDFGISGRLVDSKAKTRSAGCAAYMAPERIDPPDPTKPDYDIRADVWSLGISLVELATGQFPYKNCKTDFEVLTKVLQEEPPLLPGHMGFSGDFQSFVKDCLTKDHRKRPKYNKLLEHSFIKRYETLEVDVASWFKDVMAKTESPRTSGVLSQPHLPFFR
As to conditions: MKK7, 1 μM; read-out: % control. The method in brief: as §1

Experiment [3] deals with MAP4K4 (Homo sapiens, UniProt O95819). The conditions noted are these: MAP4K4, 1 μM; read-out: % control. The essentials:
as §1

Experiment [4] addresses EPHA2 (Homo sapiens, UniProt P29317). The conditions noted are these: EPHA2, 1 μM; read-out: % control. The method in brief: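 The panel spans 468 kinases, and each inventive compound was applied at 1 μM from DMSO. Lower % control means stronger binding; the activity cut-off is set at less than 35%.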
Experiment [5] addresses T2, JAK2(JH1domain-catalytic) (Homo sapiens, UniProt O60674).
T2 construct: Janus kinase 2 (JAK2)(JH1domain-catalytic); purchased KinomeScan®
As to conditions: read-out: % control. The method in brief:
as §1

Experiment [6] addresses T3, DLK (Homo sapiens, UniProt Q12852).
T3 sequence (Q12852 1-859): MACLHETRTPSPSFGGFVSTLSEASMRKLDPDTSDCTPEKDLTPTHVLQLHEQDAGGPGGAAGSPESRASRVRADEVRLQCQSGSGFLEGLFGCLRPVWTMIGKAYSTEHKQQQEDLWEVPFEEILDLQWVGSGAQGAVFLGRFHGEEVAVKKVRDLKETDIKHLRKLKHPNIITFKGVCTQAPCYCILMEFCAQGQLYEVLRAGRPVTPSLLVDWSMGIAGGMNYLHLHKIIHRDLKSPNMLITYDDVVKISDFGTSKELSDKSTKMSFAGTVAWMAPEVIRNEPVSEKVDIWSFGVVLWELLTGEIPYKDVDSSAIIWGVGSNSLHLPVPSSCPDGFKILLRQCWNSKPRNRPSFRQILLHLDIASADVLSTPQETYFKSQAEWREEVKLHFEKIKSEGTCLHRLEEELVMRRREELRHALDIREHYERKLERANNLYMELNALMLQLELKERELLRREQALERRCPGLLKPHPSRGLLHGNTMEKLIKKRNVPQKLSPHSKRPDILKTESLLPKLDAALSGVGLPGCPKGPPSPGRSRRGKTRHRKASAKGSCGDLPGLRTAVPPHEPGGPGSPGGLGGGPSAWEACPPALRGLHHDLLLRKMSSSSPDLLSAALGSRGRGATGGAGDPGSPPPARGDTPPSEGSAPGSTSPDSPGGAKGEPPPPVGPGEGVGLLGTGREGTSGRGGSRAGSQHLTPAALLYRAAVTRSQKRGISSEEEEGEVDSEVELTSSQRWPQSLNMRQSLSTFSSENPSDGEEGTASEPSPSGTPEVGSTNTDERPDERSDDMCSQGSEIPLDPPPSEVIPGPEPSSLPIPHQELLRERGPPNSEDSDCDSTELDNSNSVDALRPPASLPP
As to conditions: read-out: % control. The method in brief:
as §1

The target in experiment [7] is PRKCD (Homo sapiens, UniProt Q05655). The conditions noted are these: read-out: % control. The method in brief: as §1
Chain of PRKCD (Q05655 whole entry): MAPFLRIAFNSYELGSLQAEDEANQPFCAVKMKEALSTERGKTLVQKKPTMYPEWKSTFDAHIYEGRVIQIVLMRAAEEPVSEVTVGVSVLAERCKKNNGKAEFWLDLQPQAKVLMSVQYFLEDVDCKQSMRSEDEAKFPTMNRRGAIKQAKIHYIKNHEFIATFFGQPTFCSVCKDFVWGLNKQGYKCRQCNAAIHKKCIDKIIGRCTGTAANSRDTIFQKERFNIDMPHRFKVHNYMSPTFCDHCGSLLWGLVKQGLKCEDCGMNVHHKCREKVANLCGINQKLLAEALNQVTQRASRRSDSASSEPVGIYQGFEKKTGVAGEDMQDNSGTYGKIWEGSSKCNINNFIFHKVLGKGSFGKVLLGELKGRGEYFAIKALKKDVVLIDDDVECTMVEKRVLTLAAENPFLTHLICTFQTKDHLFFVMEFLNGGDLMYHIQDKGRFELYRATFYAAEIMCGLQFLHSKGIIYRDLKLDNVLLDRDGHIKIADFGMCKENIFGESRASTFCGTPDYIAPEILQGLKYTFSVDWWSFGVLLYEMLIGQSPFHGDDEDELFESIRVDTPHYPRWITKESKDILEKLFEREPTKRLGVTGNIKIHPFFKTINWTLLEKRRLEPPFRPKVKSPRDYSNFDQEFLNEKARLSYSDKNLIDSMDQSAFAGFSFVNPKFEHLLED
The target in experiment [8] is EGFR(L861Q) (Homo sapiens, UniProt P00533, L861Q). The conditions noted are these: read-out: % control. The essentials:
as §1

Experiment [9] deals with T4, ACVRL1 (Homo sapiens, UniProt P37023).
T4 construct: purchased KinomeScan®
T4 sequence (P37023 22-503): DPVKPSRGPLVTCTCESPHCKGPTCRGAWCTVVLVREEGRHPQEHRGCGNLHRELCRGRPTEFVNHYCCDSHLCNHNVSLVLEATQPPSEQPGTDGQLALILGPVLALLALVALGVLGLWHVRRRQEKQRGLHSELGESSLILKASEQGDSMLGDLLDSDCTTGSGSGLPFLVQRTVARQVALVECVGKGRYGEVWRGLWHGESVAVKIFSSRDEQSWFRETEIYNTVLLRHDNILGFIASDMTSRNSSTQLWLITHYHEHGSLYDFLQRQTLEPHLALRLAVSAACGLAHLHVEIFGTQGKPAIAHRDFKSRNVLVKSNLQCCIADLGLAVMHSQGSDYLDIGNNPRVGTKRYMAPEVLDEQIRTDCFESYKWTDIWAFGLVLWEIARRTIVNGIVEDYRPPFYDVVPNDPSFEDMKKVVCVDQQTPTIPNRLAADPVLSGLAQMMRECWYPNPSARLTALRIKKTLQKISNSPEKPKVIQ
As to conditions: ACVRL1, 1 μM; read-out: % control. The essentials: as §1

Experiment [10] deals with T5, BMX (Homo sapiens, UniProt P51813).
T5 construct: purchased KinomeScan®
T5 sequence (P51813 1-675): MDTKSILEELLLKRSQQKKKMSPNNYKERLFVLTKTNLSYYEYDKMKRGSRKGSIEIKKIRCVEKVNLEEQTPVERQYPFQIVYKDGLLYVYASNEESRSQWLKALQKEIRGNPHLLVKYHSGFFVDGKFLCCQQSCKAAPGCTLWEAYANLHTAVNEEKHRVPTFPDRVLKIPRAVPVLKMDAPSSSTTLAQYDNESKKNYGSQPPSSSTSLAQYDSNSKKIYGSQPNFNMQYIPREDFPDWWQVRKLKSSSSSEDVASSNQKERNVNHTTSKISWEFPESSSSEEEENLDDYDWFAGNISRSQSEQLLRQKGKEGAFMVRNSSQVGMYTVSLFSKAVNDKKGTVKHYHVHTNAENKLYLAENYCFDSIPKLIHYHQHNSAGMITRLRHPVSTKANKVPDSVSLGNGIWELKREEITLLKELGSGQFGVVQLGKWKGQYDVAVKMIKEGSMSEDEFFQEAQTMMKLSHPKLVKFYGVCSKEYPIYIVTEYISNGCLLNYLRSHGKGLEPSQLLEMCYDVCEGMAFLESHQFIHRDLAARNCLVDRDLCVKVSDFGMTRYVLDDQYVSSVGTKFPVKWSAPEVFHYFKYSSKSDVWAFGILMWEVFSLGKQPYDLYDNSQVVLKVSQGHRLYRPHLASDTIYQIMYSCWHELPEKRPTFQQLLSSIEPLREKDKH
The conditions noted are these: read-out: % control. The essentials: as §1

Chain of MAP4K4 (O95819 whole entry): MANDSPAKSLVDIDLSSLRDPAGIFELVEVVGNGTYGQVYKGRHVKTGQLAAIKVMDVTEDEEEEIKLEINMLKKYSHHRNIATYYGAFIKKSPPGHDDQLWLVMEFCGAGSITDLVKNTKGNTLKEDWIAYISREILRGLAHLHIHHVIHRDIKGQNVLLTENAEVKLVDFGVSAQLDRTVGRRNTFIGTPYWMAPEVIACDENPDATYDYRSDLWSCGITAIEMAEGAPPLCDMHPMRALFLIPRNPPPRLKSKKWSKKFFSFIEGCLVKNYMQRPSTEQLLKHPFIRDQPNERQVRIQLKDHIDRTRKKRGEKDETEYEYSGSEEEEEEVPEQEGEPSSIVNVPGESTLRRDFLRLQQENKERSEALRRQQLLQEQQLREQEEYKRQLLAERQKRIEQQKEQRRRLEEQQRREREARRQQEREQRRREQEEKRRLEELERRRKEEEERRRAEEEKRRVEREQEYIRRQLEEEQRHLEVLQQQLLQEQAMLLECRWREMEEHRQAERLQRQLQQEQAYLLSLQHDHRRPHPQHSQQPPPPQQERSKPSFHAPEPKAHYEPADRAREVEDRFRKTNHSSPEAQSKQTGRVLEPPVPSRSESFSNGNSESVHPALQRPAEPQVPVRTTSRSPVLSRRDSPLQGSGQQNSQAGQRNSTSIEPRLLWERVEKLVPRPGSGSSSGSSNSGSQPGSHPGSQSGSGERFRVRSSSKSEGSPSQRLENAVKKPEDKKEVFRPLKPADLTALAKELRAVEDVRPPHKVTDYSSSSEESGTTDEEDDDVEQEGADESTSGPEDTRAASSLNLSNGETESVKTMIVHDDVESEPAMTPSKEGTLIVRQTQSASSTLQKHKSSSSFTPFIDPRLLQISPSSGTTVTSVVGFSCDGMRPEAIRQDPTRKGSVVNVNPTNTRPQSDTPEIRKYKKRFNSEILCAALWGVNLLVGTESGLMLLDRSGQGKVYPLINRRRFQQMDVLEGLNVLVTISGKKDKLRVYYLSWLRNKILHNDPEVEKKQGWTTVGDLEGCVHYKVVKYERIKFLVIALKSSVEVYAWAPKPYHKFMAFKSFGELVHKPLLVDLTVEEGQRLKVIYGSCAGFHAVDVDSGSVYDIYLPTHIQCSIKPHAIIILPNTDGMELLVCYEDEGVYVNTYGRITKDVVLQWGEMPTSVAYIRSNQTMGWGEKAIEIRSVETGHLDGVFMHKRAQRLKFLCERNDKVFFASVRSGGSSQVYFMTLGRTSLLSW
T2 sequence (O60674 849-1124 limits assumed): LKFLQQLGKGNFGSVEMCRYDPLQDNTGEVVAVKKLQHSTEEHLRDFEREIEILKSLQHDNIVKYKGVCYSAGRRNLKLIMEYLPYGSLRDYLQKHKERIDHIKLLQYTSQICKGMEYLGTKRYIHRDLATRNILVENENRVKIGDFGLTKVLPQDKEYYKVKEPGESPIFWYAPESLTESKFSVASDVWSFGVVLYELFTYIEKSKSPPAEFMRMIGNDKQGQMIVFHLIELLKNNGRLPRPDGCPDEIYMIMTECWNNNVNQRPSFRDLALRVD
Chain of EPHA2 (P29317 24-976): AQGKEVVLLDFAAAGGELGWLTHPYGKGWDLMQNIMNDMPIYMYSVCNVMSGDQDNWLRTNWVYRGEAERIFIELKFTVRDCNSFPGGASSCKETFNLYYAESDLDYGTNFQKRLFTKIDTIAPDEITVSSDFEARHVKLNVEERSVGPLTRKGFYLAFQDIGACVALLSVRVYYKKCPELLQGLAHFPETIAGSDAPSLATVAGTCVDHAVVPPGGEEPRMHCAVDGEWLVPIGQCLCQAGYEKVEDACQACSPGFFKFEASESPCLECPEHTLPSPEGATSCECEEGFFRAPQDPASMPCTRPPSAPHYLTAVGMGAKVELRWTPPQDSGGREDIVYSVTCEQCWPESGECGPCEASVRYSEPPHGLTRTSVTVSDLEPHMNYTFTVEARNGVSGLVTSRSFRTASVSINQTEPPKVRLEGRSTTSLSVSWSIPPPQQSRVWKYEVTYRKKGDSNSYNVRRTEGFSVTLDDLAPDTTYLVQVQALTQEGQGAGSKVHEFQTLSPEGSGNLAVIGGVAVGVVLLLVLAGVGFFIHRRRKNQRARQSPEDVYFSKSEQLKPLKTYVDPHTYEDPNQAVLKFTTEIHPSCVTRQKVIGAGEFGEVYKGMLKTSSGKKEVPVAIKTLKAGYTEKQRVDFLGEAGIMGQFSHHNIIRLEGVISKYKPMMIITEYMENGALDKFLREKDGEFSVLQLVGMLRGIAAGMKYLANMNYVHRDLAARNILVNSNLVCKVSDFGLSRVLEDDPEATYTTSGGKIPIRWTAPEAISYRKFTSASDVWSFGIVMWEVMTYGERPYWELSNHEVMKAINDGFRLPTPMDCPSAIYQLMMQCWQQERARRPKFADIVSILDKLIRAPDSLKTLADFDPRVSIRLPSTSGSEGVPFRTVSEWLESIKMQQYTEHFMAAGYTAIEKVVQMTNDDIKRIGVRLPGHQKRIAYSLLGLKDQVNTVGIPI
Chain of HIPK1 (Q86Z02 whole entry): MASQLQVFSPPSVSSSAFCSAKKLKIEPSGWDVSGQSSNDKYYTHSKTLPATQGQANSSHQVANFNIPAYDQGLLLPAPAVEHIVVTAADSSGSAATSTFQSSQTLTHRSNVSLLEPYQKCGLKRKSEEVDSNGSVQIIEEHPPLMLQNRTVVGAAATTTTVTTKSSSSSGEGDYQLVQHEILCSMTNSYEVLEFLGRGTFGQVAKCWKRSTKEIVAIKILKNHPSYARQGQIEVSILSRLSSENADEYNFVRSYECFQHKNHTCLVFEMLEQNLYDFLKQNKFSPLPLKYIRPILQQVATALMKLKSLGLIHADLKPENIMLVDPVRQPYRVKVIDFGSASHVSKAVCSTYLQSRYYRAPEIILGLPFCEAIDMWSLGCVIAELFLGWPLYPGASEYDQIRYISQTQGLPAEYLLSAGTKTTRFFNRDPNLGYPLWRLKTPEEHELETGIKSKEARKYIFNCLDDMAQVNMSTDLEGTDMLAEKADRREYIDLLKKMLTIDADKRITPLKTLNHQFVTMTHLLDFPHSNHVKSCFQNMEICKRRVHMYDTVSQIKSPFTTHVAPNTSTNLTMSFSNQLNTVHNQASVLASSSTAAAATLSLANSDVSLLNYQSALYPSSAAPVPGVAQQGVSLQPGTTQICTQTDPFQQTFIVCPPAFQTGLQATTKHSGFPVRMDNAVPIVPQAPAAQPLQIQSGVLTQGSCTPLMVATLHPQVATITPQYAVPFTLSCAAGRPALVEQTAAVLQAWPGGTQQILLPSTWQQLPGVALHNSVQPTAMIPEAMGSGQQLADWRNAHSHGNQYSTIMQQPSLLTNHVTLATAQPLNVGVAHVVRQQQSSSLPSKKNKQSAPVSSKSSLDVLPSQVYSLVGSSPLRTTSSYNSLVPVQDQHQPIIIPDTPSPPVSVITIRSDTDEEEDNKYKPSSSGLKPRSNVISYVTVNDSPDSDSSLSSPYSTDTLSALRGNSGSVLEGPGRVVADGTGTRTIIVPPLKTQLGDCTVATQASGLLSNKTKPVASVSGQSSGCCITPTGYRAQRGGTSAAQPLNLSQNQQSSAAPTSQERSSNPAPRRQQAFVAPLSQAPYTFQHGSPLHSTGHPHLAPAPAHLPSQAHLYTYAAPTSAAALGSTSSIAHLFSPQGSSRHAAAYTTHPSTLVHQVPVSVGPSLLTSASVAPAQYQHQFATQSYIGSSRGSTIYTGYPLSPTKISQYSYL

With `CNc1c(-c2ccc(C(=O)N3CCC(N4CCOCC4)CC3)cc2)cnc2[nH]cc(Cl)c12` [Compound 96, (4-(3-chloro-4-(methylamino)-1H-pyrrolo[2,3-b]pyridin-5-yl)phenyl)(4-morpholinopiperidin-1-yl)methanone], the remaining binding at 1 µM is 68% in experiment [1]; 79% in experiment [2]; 19% in experiment [3]; 100% in experiment [4]; 29% in experiment [5]; 24% in experiment [6]. Also, the remaining binding at 1 µM is 94% in [7], 90% in [8], 100% in [9] and 93% in experiment [10].
For `O=C(c1ccc(-c2cnc3[nH]cc(Cl)c3c2NC2CCCC2)cc1)N1CCC(N2CCOCC2)CC1` [Compound 101, (4-(3-chloro-4-(cyclopentylamino)-1H-pyrrolo[2,3-b]pyridin-5-yl)phenyl)(4-morpholinopiperidin-1-yl)methanone], the remaining binding at 1 µM in [1] stood at 92%; in experiment [2], 100%; in experiment [3] it was 78%; in [4], 30%; in experiment [5], 100%; in [6], 65%. The remaining binding at 1 µM was 88% in [7], 89% in experiment [8], 100% in experiment [9] and 34% in experiment [10].
`CNc1c(-c2cnn([C@H]3CCN(C(C)=O)C[C@@H]3F)c2)cnc2[nH]cc(Cl)c12` [Compound 77, 1-((3S,4S)-4-(4-(3-chloro-4-(methylamino)-1H-pyrrolo[2,3-b]pyridin-5-yl)-1H-pyrazol-1-yl)-3-fluoropiperidin-1-yl)ethan-1-one]: the remaining binding at 1 µM in experiment [1] worked out at 70%; in experiment [2], 67%; in experiment [3], 58%; in [4], 96%; in experiment [5] it was 7.9%; in [6], 14%. In addition, the remaining binding at 1 µM was found to be 100% in experiment [7], 96% in experiment [8], 100% in experiment [9] and 88% in [10].
